Patent US20040024024A1, “Aromatic sulfone hydroxamates and their use as protease inhibitors” (priority 2001, published 2004)
Counter-ions that a name gives are not always drawn.

Experiments:
Assay in all cases: In vitro MMP inhibition, Ki determination (fluorogenic substrate II)
Type in all cases: biochemical
Human recombinant MMP-1 = target: T1, Human recombinant MMP-1 (Homo sapiens, UniProt P03956)
T1 construct: made in house; host or cells: MMP-1-transfected HT-1080 cells (spent media)
T1 sequence (P03956 100-469): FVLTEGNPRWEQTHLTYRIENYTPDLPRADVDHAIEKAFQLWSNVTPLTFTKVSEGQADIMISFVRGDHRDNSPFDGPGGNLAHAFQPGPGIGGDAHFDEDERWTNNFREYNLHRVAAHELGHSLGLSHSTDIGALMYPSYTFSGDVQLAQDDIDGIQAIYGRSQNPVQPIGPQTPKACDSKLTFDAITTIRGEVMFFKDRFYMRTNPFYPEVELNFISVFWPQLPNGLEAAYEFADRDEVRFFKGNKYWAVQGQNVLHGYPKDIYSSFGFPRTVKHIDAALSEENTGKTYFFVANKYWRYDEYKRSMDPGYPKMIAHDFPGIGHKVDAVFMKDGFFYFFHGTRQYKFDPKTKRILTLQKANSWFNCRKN
Procedure: (§1) Several hydroxamates and salts thereof were analyzed in in vitro assays to determine their ability to inhibit the MMP cleavage of peptide substrates. Inhibition (Ki) and IC50 constants were calculated from the assayed hydroxamate-MMP interactions.
(§2) Human recombinant MMP-1, MMP-2, MMP-9, MMP-13, and MMP-14 were used in this assay. All enzymes were prepared in Assignee's laboratories following usual laboratory procedures. Protocols for the preparation and use of these enzymes are available in the scientific literature. See, e.g., Enzyme Nomenclature (Academic Press, San Diego, Calif., 1992) (and the citations therein). See also, Frije et al., J. Biol. Chem., 26(24), 16766-73 (1994).
The MMP-1 proenzyme was purified from the spent media of MMP-1-transfected HT-1080 cells provided by Dr. Harold Welgus of Washington University (St. Louis, Mo.). The protein was purified on a zinc chelating column.
(§3) All MMPs were activated using 4-aminophenylmercuric acetate (“APMA”, Sigma Chemical, St. Louis, Mo.) or trypsin. MMP-9 also was activated using human recombinant MMP-3 (purified in Assignee's laboratory following standard cloning and purification techniques).
(§4) Two fluorogenic, methoxycoumarin-containing polypeptide substrates were used in the MMP inhibition assays:
(§5) MCA-ArgProLeuGlyLeuDpaAlaArgGluArgNH2 (II)
(§6) Here, “Dpa” is 3-(2,4-dinitrophenyl)-L-2,3-diaminopropionyl group, and “MCA” is 7-methoxycoumarin-4-yl acetyl. Substrate (I) was purchased from Baychem (Redwood City, Calif.), and substrate II was prepared Assignee's laboratory. Substrate I was used in the IC50 determination assays, while substrate II was used in the Ki determination assays. In the absence of MMP inhibitory activity, either substrate is cleaved at the Gly-Leu peptide bond. This cleavage separates the highly fluorogenic peptide from the 2,4-dinitrophenyl quencher, thus resulting in increase of fluorescent intensity.
(§7) The stock solutions of the assayed hydroxamates (or salts thereof) were prepared in 1% dimethyl sulfoxide (DMSO). These stock solutions were diluted in Buffer A (100 mM Tris-HCl, 100 mM NaCl, 10 mM CaCl2, 0.05% polyoxyethylene 23 lauryl ether, pH 7.5) to obtain solutions with different hydroxamate concentrations, i.e., assay solutions with different concentrations of the assayed MMP inhibitory compound. The experiment controls contained the same amount of Buffer A/DMSO as the assayed sample, but contained no hydroxamate (or salt thereof).
(§8) The assays from which the Ki determinations were made were performed as follows. The assayed hydroxamate samples were incubated in separate wells of untreated white polystyrene plates (Nunc Nalgene International, Rochester, N.Y.), and analyzed on a Tecan SpectraFlour Plus plate reader. The excitation wavelength was 330 nm, and the emission wavelength—420 nm. All samples (assayed hydroxamates and controls) were incubated in separate plate wells at room temperature for 1 hr in the presence of 4 μM of MMP substrate (II). In the absence of MMP inhibitory activity, substrate II was cleaved at the Gly-Leu bond resulting in an increase of relative fluorescence. Inhibition was observed as a reduced rate of this increase in relative fluorescence. The various hydroxamates were analyzed using a single low enzyme concentration with a single substrate concentration fixed at or below the Km. This protocol is a modification of method by Knight et al., FEBS Lett., 296(3), 263-266 (1992). Apparent inhibitory constants were determined by non-linear regression of reaction velocity as a function of inhibitor and enzyme concentration using Morrison's equation, as described by Kuzmic, Anal. Biochem. 286, 45-50 (2000). Modifications were made in the non-linear regression method to allow a common control reaction rate and effective enzyme concentration to be shared between all dose-response relationships on a given assay plate. […]

Human recombinant MMP-9 = target: T2, Human recombinant MMP-9 (Homo sapiens, UniProt P14780)
T2 construct: made in house; host or cells: MMP-9-transfected HT1080 cells (spent media)
Procedure: as §1, §2
The MMP-9 proenzyme was purified by gelatin Sepharose chromatography from spent media of MMP-9-transfected HT1080 cells provided by Dr. Howard Welgus of Washington University (St. Louis, Mo.).
as §3, §4, §5, §6, §7, §8

Human recombinant MMP-13 = target: T3, Human recombinant MMP-13 (Homo sapiens, UniProt P45452)
T3 construct: made in house; host or cells: baculovirus / insect cells
Procedure: as §1, §2
The expressed proenzyme was first purified over a heparin agarose column, and then over a chelating zinc chloride column. The proenzyme was then activated by APMA for use in the assay. Further details on baculovirus expression systems may be found in, for example, Luckow et al., J. Virol., 67, 4566-79 (1993). See also, O'Reilly et al, Baculovirus Expression Vectors: A Laboratory Manual (W. H. Freeman and Co., New York, N.Y., 1992). See also, King et al., The Baculovirus Expression System: A Laboratory Guide (Chapman & Hall, London, England, 1992).
as §3, §4, §5, §6, §7
as §8, with “(2000).” for “(2000). Modifications were made in the non-linear regression method to allow a common control reaction rate and effective enzyme concentration to be shared between all dose-response relationships on a given assay plate.”

[1] = substrate (II) 4 μM, 1 hr room temperature, apparent Ki, values in parenthesis

T2 sequence (P14780 107-707 limits assumed): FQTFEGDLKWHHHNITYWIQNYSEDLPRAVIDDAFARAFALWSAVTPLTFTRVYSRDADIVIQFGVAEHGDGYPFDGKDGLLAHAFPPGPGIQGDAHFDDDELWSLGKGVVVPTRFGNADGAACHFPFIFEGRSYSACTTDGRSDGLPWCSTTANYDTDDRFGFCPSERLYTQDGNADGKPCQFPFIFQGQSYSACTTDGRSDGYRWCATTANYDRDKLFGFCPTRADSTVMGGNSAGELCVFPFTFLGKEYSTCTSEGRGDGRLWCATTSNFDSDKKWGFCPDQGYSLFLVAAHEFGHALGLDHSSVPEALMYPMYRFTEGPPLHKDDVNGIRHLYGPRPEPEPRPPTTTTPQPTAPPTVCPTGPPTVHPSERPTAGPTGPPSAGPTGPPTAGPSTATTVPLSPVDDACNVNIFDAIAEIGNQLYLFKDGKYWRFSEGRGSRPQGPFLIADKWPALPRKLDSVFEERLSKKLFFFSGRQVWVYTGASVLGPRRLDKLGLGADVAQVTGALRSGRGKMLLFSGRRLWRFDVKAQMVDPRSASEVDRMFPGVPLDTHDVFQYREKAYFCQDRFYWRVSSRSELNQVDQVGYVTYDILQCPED

SMILES: O=C(NO)C1(S(=O)(=O)c2ccc(OCCCc3nc(-c4ccc(OC(F)(F)F)cc4)no3)cc2)CCN(C2CC2)CC1 [Example 51, 1-cyclopropyl-N-hydroxy-4-{[4-(3-{3-[4-(trifluoromethoxy)phenyl]-1,2,4-oxadiazol-5-yl}propoxy)phenyl]sulfonyl}piperidine-4-carboxamide Hydrochloride]
- Ki (Human recombinant MMP-1; [1]): 5160 nM
- Ki (Human recombinant MMP-9; [1]): 98.7 nM
- Ki (Human recombinant MMP-13; [1]): 1.7 nM

SMILES: O=C(NO)C1(S(=O)(=O)c2ccc(OCCCc3nc(-c4ccccc4)no3)cc2)CCOCC1 [Example 584]
- Ki (Human recombinant MMP-1; value in parentheses): 2760 nM
- Ki (Human recombinant MMP-9; value in parentheses): 12.6 nM
- Ki (Human recombinant MMP-13; value in parentheses): 0.944 nM

SMILES: Cc1cc(NC(=O)CCCOc2ccc(S(=O)(=O)C3(C(=O)NO)CCOCC3)cc2)ccc1OC(C)C [Example 290]
- Ki (Human recombinant MMP-1; value in parenthesis): > 10000 nM
- Ki (Human recombinant MMP-9; value in parenthesis): > 10000 nM
- Ki (Human recombinant MMP-13; value in parenthesis): 0.547 nM

SMILES: COc1ccc(/C(C#N)=C/CCCOc2ccc(S(=O)(=O)C3(C(=O)NO)CCN(C4CC4)CC3)cc2)cc1 [Example 233]
- Ki (Human recombinant MMP-1; value in parenthesis): > 10000 nM
- Ki (Human recombinant MMP-9; value in parenthesis): 509 nM
- Ki (Human recombinant MMP-13; value in parenthesis): 0.137 nM

SMILES: COCCN1CCC(C(=O)NO)(S(=O)(=O)c2ccc(OCCCc3nc(-c4ccc(CC(C)C)cc4)no3)cc2)CC1 [Example 175]
- Ki (Human recombinant MMP-1; value in parenthesis): > 10000 nM
- Ki (Human recombinant MMP-9; value in parenthesis): 1390 nM
- Ki (Human recombinant MMP-13; value in parenthesis): 2.01 nM

SMILES: O=C(NO)C1(S(=O)(=O)c2ccc(OCCc3cccc(-c4cccnc4)c3)cc2)CCOCC1 [Example 125]
- Ki (Human recombinant MMP-1; value in parenthesis): 3580 nM
- Ki (Human recombinant MMP-9; value in parenthesis): 146 nM
- Ki (Human recombinant MMP-13; value in parenthesis): 0.17 nM

SMILES: O=C(NO)C1(S(=O)(=O)c2ccc(OCCCc3cccc(-c4ccc(F)cc4)c3)cc2)CCN(C2CC2)CC1 [Example 139]
- Ki (Human recombinant MMP-1; value in parenthesis): > 10000 nM
- Ki (Human recombinant MMP-9; value in parenthesis): 1390 nM
- Ki (Human recombinant MMP-13; value in parenthesis): 2.89 nM

SMILES: O=C(NO)C1(S(=O)(=O)c2ccc(OCCCc3cccc(-c4ccc5c(c4)OCO5)c3)cc2)CCOCC1 [Example 628]
- Ki (Human recombinant MMP-1; value in parentheses): > 10000 nM
- Ki (Human recombinant MMP-9; value in parentheses): 1930 nM
- Ki (Human recombinant MMP-13; value in parentheses): 19.8 nM

SMILES: O=C(NO)C1(S(=O)(=O)c2ccc(OCCCc3cccc(-c4ccccc4Cl)c3)cc2)CCOCC1 [Example 162]
- Ki (Human recombinant MMP-1; value in parenthesis): > 10000 nM
- Ki (Human recombinant MMP-9; value in parenthesis): 3150 nM
- Ki (Human recombinant MMP-13; value in parenthesis): 12 nM

SMILES: O=C(NO)C1(S(=O)(=O)c2ccc(OCCCc3cccc(Cc4ccccc4)c3)cc2)CCOCC1 [Example 98]
- Ki (Human recombinant MMP-1; value in parenthesis): > 10000 nM
- Ki (Human recombinant MMP-9; value in parenthesis): 1450 nM
- Ki (Human recombinant MMP-13; value in parenthesis): 9.15 nM

SMILES: O=C(NO)C1(S(=O)(=O)c2ccc(OCCCc3cccc(-n4ccnc4)c3)cc2)CCOCC1 [Example 574]
- Ki (Human recombinant MMP-1; value in parentheses): > 10000 nM
- Ki (Human recombinant MMP-9; value in parentheses): 83 nM
- Ki (Human recombinant MMP-13; value in parentheses): 1.32 nM

SMILES: O=C(NO)C1(S(=O)(=O)c2ccc(OCCCc3cccc(-c4ccc(C(F)(F)F)cc4)c3)cc2)CCOCC1 [Example 625]
- Ki (Human recombinant MMP-1; value in parentheses): > 10000 nM
- Ki (Human recombinant MMP-9; value in parentheses): 4600 nM
- Ki (Human recombinant MMP-13; value in parentheses): 43.6 nM

SMILES: CCN1CCC(C(=O)NO)(S(=O)(=O)c2ccc(OCCCSc3nc4ccccc4s3)cc2)CC1 [Example 591]
- Ki (Human recombinant MMP-1; value in parentheses): > 10000 nM
- Ki (Human recombinant MMP-9; value in parentheses): 4.22 nM
- Ki (Human recombinant MMP-13; value in parentheses): 0.19 nM

SMILES: O=C(NO)C1(S(=O)(=O)c2ccc(OCCc3cccc(-c4ccccn4)c3)cc2)CCOCC1 [Example 40]
- Ki (Human recombinant MMP-1; [1]): > 10000 nM
- Ki (Human recombinant MMP-9; [1]): 585 nM
- Ki (Human recombinant MMP-13; [1]): 0.58 nM

SMILES: CC(C)c1cccc(NC(=O)CCCOc2ccc(S(=O)(=O)C3(C(=O)NO)CCOCC3)cc2)c1 [Example 182]
- Ki (Human recombinant MMP-1; value in parenthesis): 6540 nM
- Ki (Human recombinant MMP-9; value in parenthesis): 85.4 nM
- Ki (Human recombinant MMP-13; value in parenthesis): 0.212 nM

SMILES: O=C(CCCOc1ccc(S(=O)(=O)C2(C(=O)NO)CCOCC2)cc1)Nc1ccc(OC(F)(F)F)cc1 [Example 250]
- Ki (Human recombinant MMP-1; value in parenthesis): 1440 nM
- Ki (Human recombinant MMP-9; value in parenthesis): 12.5 nM
- Ki (Human recombinant MMP-13; value in parenthesis): 0.127 nM

SMILES: O=C(CCCc1ccc(S(=O)(=O)C2(C(=O)NO)CCOCC2)cc1)c1cccc(-c2ccccc2)c1 [Example 219]
- Ki (Human recombinant MMP-1; value in parenthesis): 5600 nM
- Ki (Human recombinant MMP-9; value in parenthesis): 59.5 nM
- Ki (Human recombinant MMP-13; value in parenthesis): 0.355 nM

SMILES: O=C(NO)C1(S(=O)(=O)c2ccc(OCCCc3cccc(-c4csc5ccccc45)c3)cc2)CCOCC1 [Example 631]
- Ki (Human recombinant MMP-1; value in parentheses): > 10000 nM
- Ki (Human recombinant MMP-9; value in parentheses): 5810 nM
- Ki (Human recombinant MMP-13; value in parentheses): 57.6 nM

SMILES: Cc1ccc(-c2cccc(CCCOc3ccc(S(=O)(=O)C4(C(=O)NO)CCOCC4)cc3)c2)s1 [Example 639]
- Ki (Human recombinant MMP-1; value in parentheses): > 10000 nM
- Ki (Human recombinant MMP-9; value in parentheses): 688 nM
- Ki (Human recombinant MMP-13; value in parentheses): 12.5 nM

SMILES: O=C(NO)C1(S(=O)(=O)c2ccc(OCCCc3cc(-c4ccc(F)cc4F)cs3)cc2)CCOCC1 [Example 587]
- Ki (Human recombinant MMP-1; value in parentheses): > 10000 nM
- Ki (Human recombinant MMP-9; value in parentheses): 8180 nM
- Ki (Human recombinant MMP-13; value in parentheses): 1.42 nM

SMILES: O=C(NO)C1(S(=O)(=O)c2ccc(OCCCc3cccc(-c4cccnc4)c3)cc2)CCOCC1 [Example 150]
- Ki (Human recombinant MMP-1; value in parenthesis): > 10000 nM
- Ki (Human recombinant MMP-9; value in parenthesis): 125 nM
- Ki (Human recombinant MMP-13; value in parenthesis): 0.587 nM

SMILES: Cc1cc(OC(F)(F)F)ccc1NC(=O)CCCOc1ccc(S(=O)(=O)C2(C(=O)NO)CCOCC2)cc1 [Example 229]
- Ki (Human recombinant MMP-1; value in parenthesis): 955 nM
- Ki (Human recombinant MMP-9; value in parenthesis): 281 nM
- Ki (Human recombinant MMP-13; value in parenthesis): 0.27 nM

SMILES: O=C(NO)C1(S(=O)(=O)c2ccc(OCCCn3nnc(-c4ccc(OC(F)(F)F)cc4)n3)cc2)CCN(CC2CC2)CC1 [Example 53]
- Ki (Human recombinant MMP-1; [1]): > 10000 nM
- Ki (Human recombinant MMP-9; [1]): 2900 nM
- Ki (Human recombinant MMP-13; [1]): 0.662 nM
